The results in this text go back to patent publication US10696731B2, “Oligopeptide-free cell culture media” (Baxalta GmbH, priority 2006, dated 2020).

The subject of test [1] is GD8/6 cells. Nature of the test: Small scale spinner flask culture of GD8/6 cells in BAV-medium: FVIII productivity and growth rate. Particulars: added to BAV-medium, range 0-18 mg/L; spinner flasks 200 ml.
Experimental: Cell counts from suspension cells or immobilized cells were determined either by counting with a CASY® cell counter as described by Scharfe et al., Biotechnologie in LaborPraxis 10: 1096-1103 (1988), or by citric acid extraction and fluorescent staining of the nuclei followed by counting with a NucleoCounter® (Chemometec, DK). The specific growth rate (p) is calculated from the increase of the cell densities(Xt) and/or the dilution rate (D) of the steady state of chemostat cultures of suspensions cells over a certain time interval (t): μ=D+ln(Xt/XO)/t
The activity of Factor VIII (FVIII) (cf. FIGS. 1 to 5) was measured by a chromogenic assay (Chromogenic, Sweden).
The cell specific productivity (qp) is defined as the specific amount of produced protein (U or μg) per number of cells per day.
Small scale experiments with GD8/6 cells in suspension culture were carried out in Techne spinner flasks at 200 ml working volume in batch refeed mode at 37° C., without pH and pO2 control.
Test [2] concerns GD8/6 cells. Description: FVIII expression and growth of GD8/6 cells in 10 L chemostat culture with BAV-medium. The format is cell-based. How it is done: The volumetric productivity (QP) is calculated from the amount of activity units yielded per liter reactor volume per day (U/L/d) in the production system.
Cell cultures of recombinant mammalian cells (e.g., CHO-cells stably expressing Factor VIII, such as GD8/6 cells) were grown in suspension in a chemostat culture in 10 l bioreactors. The culture conditions of 37° C., oxygen saturation 20%, and pH 7.0 to 7.1 were kept constant. The cultures were supplied with a constant feed of BAV-medium.

[3] abbreviates: 2 mg/L plus additional supplementation with Fe (II) and Cu (II).

`NCCCNCCCCNCCCN` [spermine]: in the test on GD8/6 cells [1], the “ability to substitute putrescine (FVIII productivity and growth)” value (“ability to substitute putrescine” for short) is listed as “could also substitute putrescine in a concentration-dependent manner”.

With `NCCC[C@H](N)C(=O)O` [Ornithine], the “ability to substitute putrescine” value in the test on GD8/6 cells [1] is reported as “could partially substitute putrescine in a concentration-dependent manner”.

Consider `NCCO` [ethanolamine, reference compound], for which, in the test on GD8/6 cells [1], the “ability to substitute putrescine” value is on record as “could neither replace putrescine in any concentration investigated”.

Consider `NCCCCN` [Putrescine.2HCl], for which the volumetric productivity entry with GD8/6 cells [2] (2 mg/L plus Fe (II) and Cu (II), after a further increase of the cell density) was “over 3000 U/L/D”. Moreover, in the test on GD8/6 cells [2] (setting [3]), the cell specific productivity entry is “over 1700 mU/10E06 cells/day”, the specific growth rate result is given as “approximately 0.60 d^−1” and the volumetric productivity entry is recorded as “over 2685 U/L/D”. Moreover, in the test with GD8/6 cells [2] (addition of 2 mg/L after 11 days of continuous feed of BAV-medium, 10 L bioreactor), the “increase of volumetric FVIII-expression” value is reported as 800%. Further, the “FVIII expression (volumetric productivity)” value in the test with GD8/6 cells [2] (addition of 2 mg/L, BAV-medium without it averaged 271 U/L/D) is reported as 870 U/L/D.
